Test: Pharmacokinetic studies: BPD concentration in plasma
Format: in vivo, Balb/c mice
Conditions: for Plasma Conc.: liposomal BPD
Protocol: Determination of BPD Concentration in Plasma: Plasma samples were obtained by centrifugation of blood collected from mice and stored frozen at -20° C. until assessment. The concentration of BPD in the samples was determined by fluorometry using a Jasco Model FP-770 (Japan Spectroscopic Co.) spectrofluorometer and a microcuvette (Far UV Quartz Cell, Starna Cells Inc.). Excitation and emission wavelengths were 439 and 699 nm, respectively. Plasma samples were diluted 20-fold with PBS containing 1% Triton® X-100 immediately before fluorescence was determined. BPD standards were prepared in 5% mouse plasma in PBS with 1% Triton® X-100. Under these conditions the relationship between the concentration of BPD and units of fluorescence was linear (correlation coefficient >0.99) for concentrations between 0.1 ng/ml and 1 μg/ml. The limit of detection was below 0.1 ng/ml sample which corresponded to 2 ng/ml plasma. […] The 699 nm fluorescence peak of BPD was virtually free from any interference.
In order to determine the level of BPD in plasma during the light treatment, the following experiment was carried out. Fourteen Balb/c mice (22±1 g of weight) were injected with liposomal BPD at 20 μg/mouse (0.9 mg/kg) in 200 μl PBS per mouse. Blood samples were obtained by heart puncture at various time intervals between 15 min and 2 hours post-injection. Exposure to light started at 15 min post-injection for some mice. The BPD concentration in plasma was determined as described above.

What does the source list for “benzoprophyrin derivative monoacid ring A [BPD]”?
plasma level of BPD at the beginning of exposure to light (1 hour post-injection, as in Example 1, 0.9 mg/kg): about 4 μg/ml; Plasma Conc. (0.83 mg/kg, 20 min post injection): 4680 ng/mL; Plasma Conc. (0.83 mg/kg, 2 h 5 min post injection (text: 2 hours), 125 min): 2440 ng/mL; Plasma Conc. (0.87 mg/kg, 15 min post injection): 6320 ng/mL; Plasma Conc. (0.87 mg/kg, 1 h 38 min post injection, 98 min): 1800 ng/mL; Plasma Conc. (0.87 mg/kg, 1 h 42 min post injection, 102 min): 3220 ng/mL; Plasma Conc. (0.91 mg/kg, 1 h 24 min post injection, 84 min): 2920 ng/mL; Plasma Conc. (0.91 mg/kg, 1 h 32 min post injection, 92 min): 2980 ng/mL; Plasma Conc. (0.95 mg/kg, 1 h 23 min post injection, 83 min): 3260 ng/mL
